These results are taken from patent US20220389049A1, “REVERSIBLE TERMINATORS FOR DNA SEQUENCING AND METHODS OF USING THE SAME” (Centrillion Technologies, Inc., priority 2019, published 2022).

For one data set, the system named is DNA polymerase ("CENT1"). In words: Enzymatic incorporation and cleavage studies: primer extension with compound 5 into a growing DNA chain (FIG. 2). Type of data set: biochemical. The source says: Enzymatic Incorporation and Cleavage Studies: (2R,3S,5R)-2-(((hydroxy((hydroxy(phosphonooxy)phosphoryl)oxy)phosphoryl)oxy)methyl)-5-(5-methyl-2,4-dioxo-3,4-dihydropyrimidin-1(2H)-yl)tetrahydrofuran-3-yl 3-azidopropanoate (5), a model compound, was synthesized similar to conditions of the relevant reactions disclosed in Scheme 1.

The nature of data set [1]: Chemical cleavage of the 3′O-blocking group of the free triphosphate by reducing reagent. As to conditions: heating with THPP or TCEP in 1×TE buffer at 55° C. for 5 min. Type of data set: physicochemical. The procedure:
Cleavage of 3′O-[dithio-1-butynyl)-methyl)-thymidine triphosphate (15): The 3′O-bolcking group, alkyne dithioalkynemethyl ether from triphosphate 15 was cleaved by heating with 1, 4-dithiothreitol or (DTT) or tris(2-carboxyethyl) phosphine (TCEP) in 1×TE buffer (pH 9.5) at 55 degree Celsius for 5 min to afford thymidine triphosphate as shown in the Scheme 5.

In a further data set the test system is growing DNA chain. In words: Enzymatic incorporation: primer extension with compound 15 into a growing DNA chain (FIG. 3). As to conditions: FIG. 3 lanes 3, 4, 6 and 7. Type of data set: biochemical.

Regarding `Cc1cn([C@H]2C[C@@H](OC(=O)CCN=[N+]=[N-])[C@@H](COP(=O)(O)OP(=O)(O)OP(=O)(O)O)O2)c(=O)[nH]c1=O` [compound 5, 3′O-(3-azidopropionyl)-thymidine triphosphate], the “blockage of further extension after incorporation of the terminator” value in the data set on DNA polymerase ("CENT1") ("runaway" reaction in the presence of all four unmodified dNTPs and a polymerase, FIG. 2 lane 4) is “blockage of further extension”. Besides, the “cleavage of the label and the blocking group after incorporation” value in the data set with DNA polymerase ("CENT1") (FIG. 2 lane 5) was “cleavage of the label and the blocking group”. The “further extension by the next base added after the cleavage” value in the data set on DNA polymerase ("CENT1") (FIG. 2 lane 6) was “further extension by the next base added”. The enzymatic incorporation entry in the data set with DNA polymerase ("CENT1") (in the presence of DNA polymerase ("CENT1"), FIG. 2 lane 3) is listed as “can be used in enzymatic incorporation”. The “cleavage of the 3′O-azidoalkanoate” value in data set [1] is recorded as “neatly cleaved”.

Regarding `C#CCCCSSCO[C@@H]1C[C@H](n2cc(C)c(=O)[nH]c2=O)O[C@@H]1COP(=O)(O)OP(=O)(O)OP(=O)(O)O` [compound 15], in the data set with growing DNA chain, the enzymatic incorporation entry is reported as “excellent enzymatic incorporation”.
